Laboratory results as given in PMC4535335 (Bioorganic & medicinal chemistry letters, 2014).

Experiments:
[1] = cited from earlier work
[2] = cited from earlier work; remark: listed apart in the source
[3] = plasma protein binding; cited from earlier work
[4] = intrinsic clearance in rat hepatic microsomes fortified with NADPH; format: in vitro ADME; settings: OCD3 for OCH3
[5] = intrinsic clearance in human hepatic microsomes fortified with NADPH; format: in vitro ADME

SMILES	brain:plasma Kp [1]	rat brain fu [2]	human fu [3]	improvement to rat intrinsic clearance relative to VU6000181 [4]	reduction of human in vitro intrinsic clearance relative to VU6000181 ([5]; OCD3 for OCH3)	CLint scaled ([5]; human, microsomes) [mL/min/kg]
O=C(c1ccc(F)c(F)c1)N1CCN2C(=O)c3ccccc3[C@@]12c1ccc(Cl)cc1 [ML375]	1.8	0.003	0.013			
[2H]C([2H])([2H])Oc1ccc([C@@]23c4ccccc4C(=O)N2CCN3C(=O)c2cc(F)c(F)c(F)c2)cc1C [VU6001005]				negligible improvement	~ 5 fold	72.9
